Test results published in patent US8481489B2, “GH secretagogues and uses thereof” (Theratechnologies Inc., priority 2003, dated 2013).
Values joined by “and” are separate entries in the source; they are usually repeats but may differ in a detail not shown here. Equal values may be shown once. Read-outs that look alike come from different tables or passages of the source. Marks after values point to notes of the source that are not given here.

Columns and labels:
[1] = system: IGF-1; assay: IGF-1 levels in type II diabetic patients; assay type: in vivo, human; conditions: end of 12-week treatment period
Method: (§1) A double-blind placebo-controlled study was conducted in 53 type II diabetic patients (age=61±7 [SD]; 34% female) on stable antidiabetic medication (26% on insulin). Patients were randomized to parallel groups to receive daily subcutaneous administration of a placebo, 1 mg or 2 mg TH9507, respectively.

[2] = TH9507 PK profile, 7-day study in healthy men; assay type: in vivo, human
Method: (§2) The study used a randomized, double-blind, placebo-controlled design and was conducted in healthy men, aged 50 to 60 years old. Subjects (8 per group) were injected S.C. once a day for 7 consecutive days with placebo, 0.5, 1 or 2 mg of TH9507. Circulating IGF-1 levels were measured on Days 1 to 7. The 12 hour GH response and TH9507 PK profile were determined on Day 1 and 7.

[3] = system: GH secretion; assay: GH response and other pituitary hormones, 7-day study in healthy men; assay type: in vivo, human; conditions: dose dependent between 0.5 and 1 mg, similar at 1 and 2 mg
Method: The study used a randomized, double-blind, placebo-controlled design and was conducted in healthy men, aged 50 to 60 years old. Subjects (8 per group) were injected S.C. once a day for 7 consecutive days with placebo, 0.5, 1 or 2 mg of TH9507. Circulating IGF-1 levels were measured on Days 1 to 7. […]

[4] = system: HIV-infected patients with abdominal fat accumulation; assay: Body composition by DEXA, HIV lipodystrophy study; conditions: for Fat Mass, Δ / Lean Body Mass, Δ / Limb Fat, Δ / Trunk Fat, Δ: change from baseline, Week 12, mean (SD)
Method: (§3) Design: Randomized, placebo-controlled, multi-center, dose ranging (placebo, 1 mg or 2 mg SC QD), parallel group, 12-week study
Patients: 61 HIV-infected patients (BMI 28±3 [SD] kg/m^2, 28% diabetic or glucose intolerant) with increased waist circumference (102 cm±8 [SD]) and waist/hip (1.0±0.1 [SD])
At the baseline visit, anthropometric measurements were obtained. Total body lean and fat mass as well as regional fat mass in the trunk and extremities were assessed by DEXA. Abdominal subcutaneous and visceral fat area and the ratio of VAT to SAT were determined by cross-sectional CT at L4-L5.
Whole body and regional DEXA (dual energy X-ray absorptiometry) and cross-sectional abdominal CT scans were performed at the individual study sites based on previously established protocols and were standardized across sites. Digitized images were sent to a central reading center, St. Lukes Roosevelt Hospital, for analysis by independent experts without knowledge of treatment assignment. Each site was given a procedure manual to follow in obtaining the body composition data and was certified in the proper technique. For the CT scans, parameters were standardized as follows: Tube Voltage=120 kV, Tube Current=250 mA, Exposure=375 mAs, matrix 512×512. DFOV was set to include the entire slice into the field of view. For the DEXA scans total body scans were performed with analysis of lean body mass, total fat mass, and regional fat mass in the trunk and extremities as previously described (16).
Body composition endpoints included trunk fat and trunk to limb fat ratio by DEXA and VAT and VAT:SAT by CT scan. […] Baseline data are compared between the groups by F-test based on ANOVA for continuous variables and Chi-Square test for categorical variables. Change over time between groups is compared by ANOVA or the Chi-Square test. Where appropriate, data were rank transformed prior to analysis. Changes within each group are determined by t-test. The ITT (intent to treat) population is defined as all subjects who received at least one dose of the study treatment. Descriptive statistics and analyses for all efficacy and safety analyses are performed on the ITT population. End of study, 12 week, data are used to calculate changes in body composition. […] Imputation for missing data is not performed. For body composition, end of study data are used to calculate change. […] Results are mean (SD) unless otherwise noted. All statistical tests were performed with a two-sided Type I error level of 0.05.

[5] = Adverse events, discontinuation and safety laboratory, HIV lipodystrophy study
[6] = system: IGF-1; conditions: daily 1 and 2 mg doses; reference (14); cited from earlier work
[7] = system: HIV-infected patients with abdominal fat accumulation; assay: Bone turnover markers (osteocalcin, NTX), HIV lipodystrophy study; conditions: for NTX, Δ / Osteocalcin, Δ: change from baseline, Week 12, mean (SD)
Method: as §3
(§4) Biochemical parameters including insulin-like growth factor-I, glucose, insulin, lipid profile (cholesterol, HDL, LDL, triglyceride, non HDL and the ratio of cholesterol:HDL), free fatty acids, HbA1C, IGFBP-3, and bone markers (serum osteocalcin and NTX-1), CD4, viral load, and a pregnancy test for female subjects were determined in the fasting state.
(§5) Clinical laboratory testing was performed by a central lab. […] NTX (N-terminal telopeptide of type I collagen; a bone resorption marker) was measured by ELISA using a commercially available kit (Osteomark™, Ostex International Inc., Seattle, Wash.). Osteocalcin was measured using a commercially available enzymatic immunoassay kit (Metra™ osteocalcin, Quidel Corporation, San Diego, Calif.). CD4 and viral load were performed by the individual site labs by routine methodology.

[8] = system: HIV-infected patients with abdominal fat accumulation; assay: Lipid parameters, HIV lipodystrophy study; conditions: mean (SD); for Chol:HDL, Δ / HDL, Δ / LDL, Δ / NONHDL Cholesterol, Δ / Total Cholesterol, Δ / Triglycerides, Δ: change from baseline, Week 12; for Triglyceride levels change / ratio of cholesterol to HDL change: last observation values
Method: as §3
(§6) At the baseline visit, anthropometric measurements were obtained. […] Biochemical parameters including insulin-like growth factor-I, glucose, insulin, lipid profile (cholesterol, HDL, LDL, triglyceride, non HDL and the ratio of cholesterol:HDL), free fatty acids, HbA1C, IGFBP-3, and bone markers (serum osteocalcin and NTX-1), CD4, viral load, and a pregnancy test for female subjects were determined in the fasting state. In addition, insulin and glucose response to a 75 gram standard glucose challenge were assessed and a quality of life questionnaire was administered.
(§7) Clinical laboratory testing was performed by a central lab. Serum IGF-1 was measured after acid-ethanol extraction using the Esoterix RIA kit (Esoterix Inc., Calabasas Hill, Calif.), with a sensitivity of 10 ng/mL. Intra- and inter-assay coefficients of variation were 4.6-20% and 9-10%, respectively. Serum IGFBP-3 was measured using the Esoterix RIA kit (Esoterix Inc., Calabasas Hill, Calif.) with a sensitivity of 0.3 mg/mL. Intra- and inter-assay coefficients of variation were 5.1-13% and 5.5-17%, respectively. HDL, LDL, total cholesterol, triglycerides and FFA were determined by enzymatic calorimetric assay. Glucose was measured by enzymatric test (Gluco-Quant®, Roche diagnostics, Indianapolis, Ind.). HbA1c was determined by chromatography.
(§8) Other endpoints included IGF-I, lipid parameters, glucose and insulin, CD4, viral load, bone markers, and quality of life. A sample size of 20 patients/group was planned to assess a statistically significant change of 10% or more in intra-group analyses. The planned dropout rate was 25% and therefore 60 patients were enrolled into the study. Baseline data are compared between the groups by F-test based on ANOVA for continuous variables and Chi-Square test for categorical variables. Change over time between groups is compared by ANOVA or the Chi-Square test. Where appropriate, data were rank transformed prior to analysis. Changes within each group are determined by t-test. The ITT (intent to treat) population is defined as all subjects who received at least one dose of the study treatment. Descriptive statistics and analyses for all efficacy and safety analyses are performed on the ITT population. End of study, 12 week, data are used to calculate changes in body composition. For biochemical indices, the last observation available is used to calculate change. Imputation for missing data is not performed. For body composition, end of study data are used to calculate change. Interim analyses were not performed. Results are mean (SD) unless otherwise noted. All statistical tests were performed with a two-sided Type I error level of 0.05.

[9] = assay type: in vivo, human; conditions: 1 or 2 mg SC daily, 8 weeks
Method: Eighty seven (87) subjects aged 75 years in average were included in a double-bind, randomized, placebo-controlled study. TH9507 or a placebo was administered at a daily dose of 1 or 2 mg by subcutaneous injection for 8 weeks. Follow-up assessments were conducted for 12 weeks after the end of the treatment period. At week 4, in the middle of the treatment period, subjects received the commercial Canadian influenza vaccine (Vaccine Fluviral® S/F, Shire, Montreal, Canada) containing 15 μg each of A/New Caledonia/20/99, A/Panama/2007/99, B/Victoria/504/2000 antigens.

[10] = system: IGF-1 and IGFBP-3; assay: Circulating IGF-1 and IGFBP-3 levels, insomnia study; assay type: in vivo, human; conditions: week 2
[11] = system: healthy subjects exhibiting age-related sleep impairment; assay: P300 event-related potential test, 7-day cross-over study; assay type: in vivo, human; conditions: 1 mg daily for 7 days
Method: In this study, TH9507 was administered daily for 7 days in a cross-over design. […] Changes from Baseline to day 9 in the Pz amplitude of the Evoked Related Potential (P300) observed in the placebo and 1 mg group were as follows: Placebo, −15%; 1 mg, +55%, P=0.0114, as analyzed by an ANOVA model.

[12] = system: HIV-infected patients with abdominal fat accumulation; conditions: for CD4, Δ: change from baseline, Week 12, mean (SD)
Method: as §3, §4, §5

[13] = Safety profile in the two vigilance studies; assay type: in vivo, human
[14] = system: HIV-infected patients with abdominal fat accumulation; conditions: change from baseline, Week 12, mean (SD)
Method: as §3, §6, §7, §8

[15] = system: type II diabetic patients; assay: Glucose control in type II diabetic patients; assay type: in vivo, human; conditions: for glycosylated hemoglobin (HbA1c) levels: Week 12
Method: as §1
Clinically relevant changes in antidiabetic medications occurred with a similar incidence in the three treatment groups.

[16] = In vitro half-life; assay type: in vitro ADME
Description: The safety profile of TH9507 is generally good.

[17] = system: IGF-1; assay: Circulating IGF-1 levels, 7-day administration in healthy middle-aged men; assay type: in vivo, human; conditions: for IGF-1 increase over baseline values / IGF-1 levels reached: 7 days
Method: as §2

CC/C=C/CC(=O)N[C@@H](Cc1ccc(O)cc1)C(=O)N[C@@H](C)C(=O)N[C@@H](CC(=O)O)C(=O)N[C@@H](C)C(=O)N[C@H](C(=O)N[C@@H](Cc1ccccc1)C(=O)N[C@H](C(=O)N[C@@H](CC(N)=O)C(=O)N[C@@H](CO)C(=O)N[C@@H](Cc1ccc(O)cc1)C(=O)N[C@@H](CCCNC(=N)N)C(=O)N[C@@H](CCCCN)C(=O)N[C@H](C(=O)N[C@@H](CC(C)C)C(=O)NCC(=O)N[C@@H](CCC(N)=O)C(=O)N[C@@H](CC(C)C)C(=O)N[C@@H](CO)C(=O)N[C@@H](C)C(=O)N[C@@H](CCCNC(=N)N)C(=O)N[C@@H](CCCCN)C(=O)N[C@@H](CC(C)C)C(=O)N[C@@H](CC(C)C)C(=O)N[C@@H](CCC(N)=O)C(=O)N[C@@H](CC(=O)O)C(=O)N[C@H](C(=O)N[C@@H](CCSC)C(=O)N[C@@H](CO)C(=O)N[C@@H](CCCNC(=N)N)C(=O)N[C@@H](CCC(N)=O)C(=O)N[C@@H](CCC(N)=O)C(=O)NCC(=O)N[C@@H](CCC(=O)O)C(=O)N[C@@H](CO)C(=O)N[C@@H](CC(N)=O)C(=O)N[C@@H](CCC(N)=O)C(=O)N[C@@H](CCC(=O)O)C(=O)N[C@@H](CCCNC(=N)N)C(=O)NCC(=O)N[C@@H](C)C(=O)N[C@@H](CCCNC(=N)N)C(=O)N[C@@H](C)C(=O)N[C@@H](CCCNC(=N)N)C(=O)N[C@@H](CC(C)C)C(N)=O)[C@@H](C)CC)C(C)C)[C@@H](C)O)[C@@H](C)CC [TH9507, (hexenoyl trans-3)hGRF(1-44)NH2]
IGF-1 levels [1]: dose-related increase
Cmax and AUC parameters ([2]; 0.5, 1, 2 mg SC): increased in function of the dose administered
half-life ([2]; male, human, in vivo, SC, healthy men): 2 to 5 h
GH response [3]: increased rapidly
Trunk fat change ([4]; 1 mg SC QD, 12 weeks): −4.6%
Fat Mass, Δ ([4]; 1 mg SC QD): −0.4 (1.8) kg
Lean Body Mass, Δ ([4]; 1 mg SC QD): 0.7 (2.0) kg
Limb Fat, Δ ([4]; 1 mg SC QD): 0.1 (0.5) kg
Trunk Fat, Δ ([4]; 1 mg SC QD): −0.5 (1.4) kg
Trunk fat change ([4]; 2 mg SC QD, 12 weeks): −9.2%
Fat Mass, Δ ([4]; 2 mg SC QD): −1.4 (2.0) kg and −1.4 (2.0)* kg
Lean Body Mass, Δ ([4]; 2 mg SC QD): 1.7 (2.3) kg and 1.7 (2.3)* kg
Limb Fat, Δ ([4]; 2 mg SC QD): −0.3 (0.8) kg
Trunk Fat, Δ ([4]; 2 mg SC QD): −1.1 (1.3)* kg
limb fat ([4]; 1 and 2 mg SC QD, 12 weeks): no significant change
Musculoskeletal AE's e.g. pain and arthralgias, subjects ([5]; 1 mg): 26%
Musculoskeletal AE's e.g. pain and arthralgias, subjects ([5]; 2 mg): 29%
IGF-I [6]: increase IGF-I to the physiological range seen in younger adults
NTX, Δ ([7]; 1 mg SC QD): 4.5 (24.9) nMBCE/mM
Osteocalcin, Δ ([7]; 1 mg SC QD): 1.5 (4.8) ng/mL
NTX ([7]; 2 mg SC QD, 12 weeks): no changes
Osteocalcin within group ([7]; 2 mg SC QD, 12 weeks): increased significantly
NTX, Δ ([7]; 2 mg SC QD): −0.5 (27.7) nMBCE/mM
Osteocalcin, Δ ([7]; 2 mg SC QD): 3.0 (2.8)* ng/mL
Chol:HDL, Δ ([8]; 1 mg SC QD): −0.3 (0.6)
HDL, Δ ([8]; 1 mg SC QD): 0.0 (0.2) mmol/L
LDL, Δ ([8]; 1 mg SC QD): 0.1 (0.8) mmol/L
NONHDL Cholesterol, Δ ([8]; 1 mg SC QD): −0.4 (1.5) mmol/L
Total Cholesterol, Δ ([8]; 1 mg SC QD): −0.4 (1.7) mmol/L
Triglycerides, Δ ([8]; 1 mg SC QD): −1.1 (4.4) mEq/L
Triglyceride levels change ([8]; 1 mg SC QD): −0.9 (4.2)
ratio of cholesterol to HDL change ([8]; 1 mg SC QD): −0.3 (0.7)
Chol:HDL, Δ ([8]; 2 mg SC QD): −0.3 (0.7)
HDL, Δ ([8]; 2 mg SC QD): 0.1 (0.1)* mmol/L
LDL, Δ ([8]; 2 mg SC QD): 0.2 (0.7) mmol/L
NONHDL Cholesterol, Δ ([8]; 2 mg SC QD): −0.1 (0.7) mmol/L
Total Cholesterol, Δ ([8]; 2 mg SC QD): −0.1 (0.8) mmol/L
Triglycerides, Δ ([8]; 2 mg SC QD): −0.9 (1.3)* mEq/L
Triglyceride levels change ([8]; 2 mg SC QD): −0.9 (1.2)
ratio of cholesterol to HDL change ([8]; 2 mg SC QD): −0.3 (0.6)
incidence of adverse events between treatment groups [9]: No major difference
incidence of reactions at the site of injection [9]: dose-related trend
Circulating IGF-1 level vs placebo ([10]; 0.1 mg): did not affect
Circulating IGFBP-3 level vs placebo ([10]; 0.1 mg): did not affect
Circulating IGF-1 level vs placebo ([10]; 1 mg): significantly increased
Circulating IGFBP-3 level vs placebo ([10]; 1 mg): significantly increased
Change from Baseline to day 9 in the Pz amplitude of the Evoked Related Potential (P300) [11]: +55%
CD4, Δ ([12]; 1 mg SC QD): 24.4 (147.41) cells/mm^3
CD4, Δ ([12]; 2 mg SC QD): −23.2 (70.7) cells/mm^3
CD4 count and viral load ([12]; in vivo): did not change
reactions at the site of injection ([13]; 1 mg, insomnia study, vs placebo): higher incidence
safety profile ([13]; both vigilance studies): comparable to that of the placebo
Fasting Glucose, Δ ([14]; 1 mg SC QD): 0.1 (0.5) mmol/L
Fasting Insulin, Δ ([14]; 1 mg SC QD): −2.8 (27.6) mUI/L
HBA1c, Δ ([14]; 1 mg SC QD): 0.2 (0.4)* %
HOMA-R, Δ ([14]; 1 mg SC QD): 0.8 (7.0)
Two hour glucose, Δ ([14]; 1 mg SC QD): 0.1 (2.1) mmol/L
Fasting Glucose, Δ ([14]; 2 mg SC QD): 0.1 (0.7) mmol/L
Fasting Insulin, Δ ([14]; 2 mg SC QD): 7.4 (6.2) mUI/L
HBA1c, Δ ([14]; 2 mg SC QD): −0.0 (0.5) %
HOMA-R, Δ ([14]; 2 mg SC QD): 2.0 (1.6)
Two hour glucose, Δ ([14]; 2 mg SC QD): 0.7 (1.7) mmol/L
glycosylated hemoglobin (HbA1c) levels ([15]; 1 mg): a decrease
glycosylated hemoglobin (HbA1c) levels ([15]; 2 mg): no change
insulin relative response to an oral glucose tolerance test, between groups ([15]; placebo, 1 mg, 2 mg, treatment period): No statistically significant differences
half-life [16]: 3 to 8 h
IGF-1 increase over baseline values ([17]; 0.5 mg SC once a day): 37%
time at which IGF-1 plateau was reached ([17]; 1 mg): 4 days
IGF-1 increase over baseline values ([17]; 1 mg SC once a day): 89%
IGF-1 levels reached ([17]; 1 mg SC once a day): 286 ± 25 ng/mL
time at which IGF-1 plateau was reached ([17]; 2 mg): 6 days
IGF-1 increase over baseline values ([17]; 2 mg SC once a day): 106%
IGF-1 levels reached ([17]; 2 mg SC once a day): 284 ± 55 ng/mL
IGF-1 levels of individual subjects ([17]; none of the subjects greater than this level): ≤ 400 ng/mL
